In patent publication US20050043307A1, “Pyridazine, pyrimidine and pyrazine ethyne compounds” (priority 1999, published 2005) one finds melting point data, which are given here for two molecules.

Each structure is given as a SMILES string.

Turning to `CC(C)(O)C#Cc1nccs1` [Example 2, 2-Methyl-4-(1,3-thiazol-2-yl)-3-butyn-2-ol], the melting point – broadly, the temperature, or range, at which the solid turns liquid – fell in the range of 69 to 70 °C.
The figure for `Clc1cncc(C#Cc2nccs2)c1` [Example 6, 3-Chloro-5-(1,3-thiazol-2-ylethynyl)pyridine] is 124 to 125 °C.
